Earlier results on 1 substance are cited in patent US20100285127A1, “TASTE MASKED PHARMACEUTICAL COMPOSITIONS OF S-ALKYLISOTHIOURONIUM DERIVATIVES” (priority 2007, published 2010).

For the data set the following is noted: Zherebchenko 1968; Goloschapova 1981.

With “S-ethylisothiouronium diethylphosphate [Difetur]”, the radioprotective effects entry was “radioprotective effects”.
